# Tested on: human colon carcinoma cell strain WiDr
# Assay: Microarray analysis (Human Exon 1.0 ST Array) of intron expression, Table 1
# Format: cell-based
# Details: six hours
# Description: Using RNA purified from human colon carcinoma cell strain WiDr treated with 14 nM of (8E,12E,14E)-7-((4-cycloheptylpiperazin-1-yl)carbonyl)oxy-3,6,16,21-tetrahydroxy-6,10,12,16,20-pentamethyl-18,19-epoxytricosa-8,12,14-trien-11-olide (also referred to as “[…]”) for six hours, microarray analysis (Human Exon 1.0 ST Array: Affymetrix) was carried out. Not only does this array comprehensively cover the exons for all genes, but it is also designed to have probes for regions estimated as potential exons by a computer prediction program, which enables detection of the expression of the exons and introns of all genes in theory.
# WiDr cells were first suspended in RPMI1640 medium (containing 10% FBS, penicillin, and streptomycin) and seeded in a 10 cm dish (2×10^6 cells/dish). After an overnight culture in an incubator with 5% carbon dioxide gas at 37° C., the medium was changed with medium containing 14 nM of (8E,12E,14E)-7-((4-cycloheptylpiperazin-1-yl)carbonyl)oxy-3,6,16,21-tetrahydroxy-6,10,12,16,20-pentamethyl-18,19-epoxytricosa-8,12,14-trien-11-olide or containing vehicle alone. After cultured for additional six hours, TRI reagent (SIGMA) were added to the cells and the cells were harvested. RNA was purified in accordance with the protocol of TRI reagent, followed by further purification with RNeasy (QIAGEN). Absorbance at 260 nm was measured to quantify an amount of RNA. This experiment was repeated three times and RNA samples (n=3) were prepared.
# Ribosomal RNA was removed from 1 μg of each total RNA of control cells (n=3) and cells with the treatment (n=3) by using RiboMinus Human/Mouse Transcriptome Isolation Kit (Invitrogen). Single stranded cDNA synthesis, double stranded cDNA synthesis, cRNA synthesis, second single stranded cDNA synthesis, cDNA fragmentation, and cDNA labeling in order were carried out for the total RNA from which ribosomal RNA was removed, by using GeneChip Whole Transcript Sense Target Labeling and Control Reagents (Affymetrix) to make a cDNA probe. The cDNA probe was used for hybridization with Human Exon 1.0 ST Array (Affymetrix). The array was washed and stained, and luminescence intensity was measured by a scanner.
# The expression level of the probe set and the gene was quantified by using Expression Console Ver. 1.0 (Affymetrix) with Summarization Method and Normalization Method being set to “Median polish as used in RMA” and “None”, respectively. The expression level of the probe was normalized with that of the gene. Welch's t-test was conducted for the treated group and the control group to determine a p value, which was converted into a q value by controlling False Discovery Ratio to pick out a significant probe set.
# Probe sets showing that the q value was less than 1%; the normalized change in the level expression of the probe set in the group with the treatment was more than 10 times; the expression level of the probe set and the gene in the group with the treatment was more than 100; and probe set annotation was “extended, full, free”, were picked out and further arranged by gene. A gene was, when more than one probe sets therefor were found, determined as a candidate gene with increased expression level of the intron regions (Table 1). In Table 1, for the gene evaluated, gene name (Gene Name), abbreviated name (Gene Symbol), accession number (Accession), alias name (Synonym), transcription number in Human Exon 1.0 ST Array (Human Exon 1.0 ST Array), chromosome number (Chromosome), type of strand (Strand), start region (Start), stop region (Stop), and change in expression level (Fold Change) were respectively shown.
smiles,measurement,setting,value
"CCC(O)C(C)C1OC1CC(C)(O)/C=C/C=C(\C)C1OC(=O)CC(O)CCC(C)(O)C(OC(=O)N2CCN(C3CCCCCC3)CC2)/C=C/C1C (centres unmarked) [E7107, (8E,12E,14E)-7-((4-cycloheptylpiperazin-1-yl)carbonyl)oxy-3,6,16,21-tetrahydroxy-6,10,12,16,20-pentamethyl-18,19-epoxytricosa-8,12,14-trien-11-olide]","Fold Change (change in expression level, intron probe sets) ADRM1","gene ADRM1, 14 nM",13.51
same,"Fold Change (change in expression level, intron probe sets) AK2","gene AK2, 14 nM",10.05
same,"Fold Change (change in expression level, intron probe sets) ARFIP2","gene ARFIP2, 14 nM",12.04
same,"Fold Change (change in expression level, intron probe sets) ARHGAP12","gene ARHGAP12, 14 nM",11.60
same,"Fold Change (change in expression level, intron probe sets) ATP1B1","gene ATP1B1, 14 nM",12.11
same,"Fold Change (change in expression level, intron probe sets) BAT2D1","gene BAT2D1, 14 nM",11.26
same,"Fold Change (change in expression level, intron probe sets) BPTF","gene BPTF, 14 nM",17.61
same,"Fold Change (change in expression level, intron probe sets) BXDC2","gene BXDC2, 14 nM",25.94
same,"Fold Change (change in expression level, intron probe sets) C6orf166","gene C6orf166, 14 nM",19.23
same,"Fold Change (change in expression level, intron probe sets) C9orf86 // KIAA1984","gene C9orf86 // KIAA1984, 14 nM",13.66
same,"Fold Change (change in expression level, intron probe sets) C10orf18","gene C10orf18, 14 nM",19.86
same,"Fold Change (change in expression level, intron probe sets) C16orf80","gene C16orf80, 14 nM",16.25
same,"Fold Change (change in expression level, intron probe sets) CABLES1","gene CABLES1, 14 nM",16.94
same,"Fold Change (change in expression level, intron probe sets) CCND1","gene CCND1, 14 nM",12.66
same,"Fold Change (change in expression level, intron probe sets) CCNL2","gene CCNL2, 14 nM",12.84
same,"Fold Change (change in expression level, intron probe sets) CDC20","gene CDC20, 14 nM",18.22
same,"Fold Change (change in expression level, intron probe sets) CENPL","gene CENPL, 14 nM",14.13
same,"Fold Change (change in expression level, intron probe sets) DCBLD2","gene DCBLD2, 14 nM",19.52
same,"Fold Change (change in expression level, intron probe sets) DDEF2","gene DDEF2, 14 nM",22.92
same,"Fold Change (change in expression level, intron probe sets) DKC1","gene DKC1, 14 nM",11.53
same,"Fold Change (change in expression level, intron probe sets) DNAJB1","gene DNAJB1, 14 nM",11.95
same,"Fold Change (change in expression level, intron probe sets) EIF2C2","gene EIF2C2, 14 nM",21.33
same,"Fold Change (change in expression level, intron probe sets) EIF4A1","gene EIF4A1, 14 nM",16.15
same,"Fold Change (change in expression level, intron probe sets) EIF5","gene EIF5, 14 nM",12.30
same,"Fold Change (change in expression level, intron probe sets) FOXK2","gene FOXK2, 14 nM",18.79
same,"Fold Change (change in expression level, intron probe sets) GNB2L1","gene GNB2L1, 14 nM",11.87
same,"Fold Change (change in expression level, intron probe sets) GNL3","gene GNL3, 14 nM",14.08
same,"Fold Change (change in expression level, intron probe sets) GTPBP4","gene GTPBP4, 14 nM",12.24
same,"Fold Change (change in expression level, intron probe sets) HMGCS1","gene HMGCS1, 14 nM",13.21
same,"Fold Change (change in expression level, intron probe sets) HSPA9","gene HSPA9, 14 nM",13.33
same,"Fold Change (change in expression level, intron probe sets) HSPH1","gene HSPH1, 14 nM",15.12
same,"Fold Change (change in expression level, intron probe sets) IDI1","gene IDI1, 14 nM",19.25
same,"Fold Change (change in expression level, intron probe sets) ILF2","gene ILF2, 14 nM",13.79
same,"Fold Change (change in expression level, intron probe sets) ITGB1","gene ITGB1, 14 nM",21.48
same,"Fold Change (change in expression level, intron probe sets) JARID1C","gene JARID1C, 14 nM",14.09
same,"Fold Change (change in expression level, intron probe sets) KIAA0174","gene KIAA0174, 14 nM",19.65
same,"Fold Change (change in expression level, intron probe sets) KIAA1429","gene KIAA1429, 14 nM",14.19
same,"Fold Change (change in expression level, intron probe sets) KLHL18","gene KLHL18, 14 nM",15.00
same,"Fold Change (change in expression level, intron probe sets) KRT18","gene KRT18, 14 nM",13.41
same,"Fold Change (change in expression level, intron probe sets) LMO7","gene LMO7, 14 nM",14.34
same,"Fold Change (change in expression level, intron probe sets) LTV1","gene LTV1, 14 nM",18.37
same,"Fold Change (change in expression level, intron probe sets) MAT2A","gene MAT2A, 14 nM",12.29
same,"Fold Change (change in expression level, intron probe sets) MBNL2","gene MBNL2, 14 nM",28.86
same,"Fold Change (change in expression level, intron probe sets) MYO1E","gene MYO1E, 14 nM",14.49
same,"Fold Change (change in expression level, intron probe sets) NET1","gene NET1, 14 nM",13.02
same,"Fold Change (change in expression level, intron probe sets) NUPL1","gene NUPL1, 14 nM",12.63
same,"Fold Change (change in expression level, intron probe sets) PUM2","gene PUM2, 14 nM",19.01
same,"Fold Change (change in expression level, intron probe sets) RAF1","gene RAF1, 14 nM",16.41
same,"Fold Change (change in expression level, intron probe sets) RIOK3","gene RIOK3, 14 nM",13.67
same,"Fold Change (change in expression level, intron probe sets) RNF40","gene RNF40, 14 nM",15.84
same,"Fold Change (change in expression level, intron probe sets) RSPRY1","gene RSPRY1, 14 nM",14.32
same,"Fold Change (change in expression level, intron probe sets) SART3","gene SART3, 14 nM",15.13
same,"Fold Change (change in expression level, intron probe sets) SLC2A1","gene SLC2A1, 14 nM",16.44
same,"Fold Change (change in expression level, intron probe sets) SMAD3","gene SMAD3, 14 nM",12.88
same,"Fold Change (change in expression level, intron probe sets) SMURF2","gene SMURF2, 14 nM",16.60
same,"Fold Change (change in expression level, intron probe sets) SNX19","gene SNX19, 14 nM",17.12
same,"Fold Change (change in expression level, intron probe sets) SPRED2","gene SPRED2, 14 nM",31.56
same,"Fold Change (change in expression level, intron probe sets) ST3GAL1","gene ST3GAL1, 14 nM",12.77
same,"Fold Change (change in expression level, intron probe sets) SUPV3L1","gene SUPV3L1, 14 nM",18.81
same,"Fold Change (change in expression level, intron probe sets) TARDBP","gene TARDBP, 14 nM",18.13
same,"Fold Change (change in expression level, intron probe sets) TES","gene TES, 14 nM",15.95
same,"Fold Change (change in expression level, intron probe sets) TINF2","gene TINF2, 14 nM",11.05
same,"Fold Change (change in expression level, intron probe sets) TJP1","gene TJP1, 14 nM",11.55
same,"Fold Change (change in expression level, intron probe sets) UBE3A","gene UBE3A, 14 nM",19.35
same,"Fold Change (change in expression level, intron probe sets) USP47","gene USP47, 14 nM",12.32
same,"Fold Change (change in expression level, intron probe sets) VIL2","gene VIL2, 14 nM",17.50
same,"Fold Change (change in expression level, intron probe sets) WAC","gene WAC, 14 nM",18.53
same,"Fold Change (change in expression level, intron probe sets) WDR45L","gene WDR45L, 14 nM",12.59
same,"Fold Change (change in expression level, intron probe sets) WDR73","gene WDR73, 14 nM",30.61
same,"Fold Change (change in expression level, intron probe sets) WDR74","gene WDR74, 14 nM",12.70
same,"Fold Change (change in expression level, intron probe sets) WEE1","gene WEE1, 14 nM",12.26
same,"Fold Change (change in expression level, intron probe sets) YTHDC1","gene YTHDC1, 14 nM",10.66
same,"Fold Change (change in expression level, intron probe sets) ZNF384","gene ZNF384, 14 nM",12.13
same,"Fold Change (change in expression level, intron probe sets) ZNF410","gene ZNF410, 14 nM",12.01

# Reference: patent US20100021918A1, “METHOD FOR ASSAYING ACTION OF ANTITUMOR AGENT USING SPLICING DEFECTS AS INDEX” (Eisai R&D Management Co., Ltd., priority 2007, published 2010)
